Series [1] can be described thus: acute subcutaneous toleration in mice. As to conditions: mouse, in vivo, sc; subcutaneous, mice. The protocol: (§1) Compound III was administered subcutaneously to mice at doses of 100, 300 or 1000 mg/kg.
The next series deals with mice. In words: acute subcutaneous toleration in mice. Particulars: mouse, in vivo. The protocol: as §1
Series [2] deals with phenylbutazone gastric ulcer. In words: phenylbutazone gastric ulcer model. Particulars: po. It counts as in vivo. From the text: Miller et al., Gut 20, 75 (1979); Robert et al., Gastroenterology 72, 1121 (1977).] aptly characterizes the effects of compound III.
For a further series, the system named is glucose tolerance. Kind of series: glucose tolerance. It is filed as in vivo, rat. As to conditions: 10, 30, or 100 mg/kg p.o. with glucose 1 g/kg p.o. From the text: This effect may be due to a delayed absorption of glucose related to a possible effect on gastric emptying.
The test system of series [3] is IgE-mediated passive cutaneous anaphylaxis (PCA). In words: PCA test, intravenous, comparison with Intal, IgE-mediated permeability. It is filed as in vivo, rat. The protocol: In the PCA test, normal animals are injected intradermally (i.d.) with antibodies contained in serum obtained from actively sensitized animals. The animals are then challenged intravenously with antigen mixed with a dye such as Evans' Blue. The increased capillary permeability caused by the antigen-antibody reaction causes the dye to leak from the site of the antibody injection. The test animals are then asphyxiated and the intensity of the reaction determined by measuring the diameter and intensity of the blue coloration on the inner surface of the animals' skin.
The ability of agents to interfere with PCA reactions is measured in male Charles River Wistar rats, 170-210 g. Reaginic antiserum, rich in IgE antibodies, is prepared according to Petillo et al., Int. Arch. […] Hyperimmune antiserum rich in IgG antibodies to hen egg albumin is prepared according to Orange et al., J. Exptl. […] Forty-eight hours prior to antigen challenge, the reaginic antiserum is injected intradermally (i.d.) into the shaved skin of a normal rat's back; 5 hours before challenge the hyperimmune antisera is similarly injected. […] The difference is expressed as percent blockage due to the compound employed.

For a further series, the system named is human lymphocytes. In words: chromosomal breakage in human lymphocytes in vitro. As to conditions: 1000, 100, 10 or 0 μg/ml. It counts as cell-based.
The test system of a further series is anesthetized dogs. In words: cardiovascular effects in anesthetized dogs. It is filed as in vivo, dog. Particulars: cumulative doses of 5 and 15 mg/kg, i.v.
Another series deals with inhaled histamine. Kind of series: bronchoconstrictive effects of inhaled histamine. As to conditions: 30 mg/kg i.p. It is filed as in vivo, guinea pig.
The next series concerns urinary volume output. In words: diuretic activity. It is filed as in vivo. Particulars: oral. The protocol: When given orally, it caused a dose-related increase in urinary volume output at doses in the range 0.3 to 5 mg/kg. […] These findings indicate that the dose-response range for diuretic activity is considerably higher than that for antiulcer effects and just below that for antiallergy effects (1 to 10 mg/kg).

The test system of a further series is histamine and serotonin. In words: cutaneous permeability caused by intradermal exogenous histamine and serotonin. It is filed as in vivo, rat. The protocol:
The ability of agents to interfere with PCA reactions is measured in male Charles River Wistar rats, 170-210 g. Reaginic antiserum, rich in IgE antibodies, is prepared according to Petillo et al., Int. Arch. Allergy, 44, 309 (1973). Hyperimmune antiserum rich in IgG antibodies to hen egg albumin is prepared according to Orange et al., J. Exptl. Med., 127, 767 (1968). Forty-eight hours prior to antigen challenge, the reaginic antiserum is injected intradermally (i.d.) into the shaved skin of a normal rat's back; 5 hours before challenge the hyperimmune antisera is similarly injected. At a third site 60 mcg. histamine dihydrochloride and 0.5 mcg. serotonin creatinine sulfate are injected i.d. just prior to antigen challenge as a check for antihistaminic, antiserotonin and unspecific types of blockage; the compounds of the instant invention or saline are then administered i.v. and immediately followed by the challenge of 5 mg. egg albumen and 2.5 mg. Evans' Blue dye in saline. In the case of oral administration Evans' Blue dye and egg albumin are given 5 minutes after administration of the drug. Thirty minutes later the animals are asphyxiated using chloroform and the skin of the back removed and reversed for observation. […] The difference is expressed as percent blockage due to the compound employed.

For a further series, the system named is blood glucose. Kind of series: blood glucose levels in fasted rats. Particulars: oral, 10, 30 or 100 mg/kg; fasted 24 hours. It counts as in vivo, rat.
Another series relates to isolated rat monocytes. Kind of series: ionophore-stimulated synthesis and release of SRS in isolated monocytes. It is filed as cell-based.
Series [4] relates to ulcerogenic effects of aspirin. Kind of series: aspirin-induced gastric ulcer. It counts as in vivo. Particulars: po; aspirin 100 mg/kg p.o. The protocol:
Compound III also protects against the ulcerogenic effects of aspirin, 100 mg/kg p.o. where dose-related effects are seen over the dose range of 10 to 1000 μg/kg, p.o. with an ED50 of 100 μg/kg. Compound III is also active in a phenylbutazone gastric ulcer model where an oral ED50 of 200 μg/kg is observed. […] "Cytoprotective," a term coined recently to describe the antiulcer effects of prostaglandins that are independent of antisecretory activity, [Robert, Advances in Prostaglandin and Thromboxane Research 2, 507 (1976); Miller et al., Gut 20, 75 (1979); Robert et al., Gastroenterology 72, 1121 (1977).] aptly characterizes the effects of compound III.

Series [5] deals with dextran induced release of histamine. Kind of series: dextran induced release of histamine into the rat peritoneal cavity. As to conditions: ip. It is filed as in vivo. An excerpt: Compound III inhibits dextran induced release of histamine into the rat peritoneal cavity.
Series [6] has as its system isolated guinea pig ileum. Kind of series: spasms of isolated guinea pig ileum. As to conditions: 10^-8 to 10^-4 M.

A word on the LD50: it is the dose at which mortality reaches 50%. Read a low LD50 as greater toxicity. Usually ED50 stands for the dose at which the effect has come halfway, by size or by number of responders. Read a high ED50 as a need for a large dose. In series [1], `O=C(Nc1nnn[nH]1)c1cnc2sc3c(n2c1=O)CCCC3` [compound III, N-(5-tetrazolyl)-1-oxo-1H-cyclohexenothiazolo[3,2-a]pyrimidine-2-carboxamide] registered an LD50 of more than 1000 mg/kg. Besides, the symptoms or lethality result in the series with mice is “No symptoms or lethality was observed”. The same compound had an ED50 in series [2] of 0.2 mg/kg. Also, the “effect on glucose tolerance” value in the series with glucose tolerance was “apparent dose-dependent improvement in glucose tolerance”. The “intravenous activity in the PCA test, dose range” value in [3] (intravenous) fell in the range of 0.03 to 1.0 mg/kg. For the same compound, in series [3] (rat, in vivo), the “changes in cutaneous permeability induced by IgE-mediated PCA” value was “blocks the changes in cutaneous permeability”. In the series with human lymphocytes, the “chromosomal breakage in human lymphocytes” value is “failed to reveal any significant drug-induced chromosomal breakage”. In addition, in the series with anesthetized dogs, the blood pressure entry was “transient hypotension”; the heart rate result is recorded as “variable changes in heart rate”; the “pressor responses to epinephrine and bilateral carotid occlusion” value is on record as “diminished slightly”. For the same compound, the “protection against bronchoconstrictive effects of inhaled histamine” value in the series with inhaled histamine is “not protected”. For the same compound, in the series on urinary volume output, the “sodium and potassium excretion” value was “an increase in sodium and potassium excretion was observed”; the “urinary concentrations of sodium and potassium ions” value is reported as “unchanged”. In the series with urinary volume output (0.3 to 5 mg/kg), the “maximum effect on urinary volume output” value is on record as “twofold increase in volume output”. In addition, in the series with histamine and serotonin (exogenous histamine and serotonin, intradermal), the “changes in permeability caused by intradermal histamine and serotonin” value is listed as “does not interfere with the changes in permeability”. Moreover, the “antihistaminic and antiserotonin effects” value in the series on histamine and serotonin (rat, in vivo) is “absence of antihistaminic and antiserotonin effects”. Besides, the “changes in blood glucose levels” value in the series on blood glucose is on record as “did not exhibit any changes in blood glucose levels”. The “synthesis and release of SRS in isolated rat monocytes, stimulated by an ionophore” value with isolated rat monocytes is “is not inhibited”. It took a dose of 0.1 mg/kg to reach the 50% effect level in [4] (ED50). The 50% effect level in [5] (ED50) was put at a dose of 0.33 µg/kg. Also, the “antagonism of spasms of isolated guinea pig ileum induced with acetylcholine” value in series [6] (acetylcholine) was “does not antagonize spasms”. Also, the “antagonism of spasms of isolated guinea pig ileum induced with histamine” value in series [6] (histamine) is on record as “does not antagonize spasms”. In addition, the “antagonism of spasms of isolated guinea pig ileum induced with SRS-A” value in [6] (slow reacting substance of anaphylaxis (SRS-A)) is reported as “does not antagonize spasms”.

For the origin of these results see patent publication US4414388A, “1-Oxo-1H-thiazolo[3,2-a]pyrimidine-2-carboxamides” (Pfizer Inc., priority 1981, dated 1983).
